This passage reports melting point results from a melting point compilation (Tetko et al.; mined from patent text by program, amines drawn as free bases though some values may be those of a salt).

A word on the melting point: it is the temperature of the solid-liquid transition.

Compound `Cc1cc2c3c(c1)NC(=O)c1ccccc1N3CC2` showed a melting point of 222 to 224 °C.

In turn, `COc1ccc(CCNCCCOc2ccccc2NC(=O)c2cccc3[nH]ccc23)cc1OC` returned a melting point of 182 °C.

On to `COc1cc(C(=O)NNC(=N)N)c(OC)cc1C`, for which the melting point came out at 193 °C.

In turn, `CCOC(=O)Cc1ccccc1I` displayed a melting point of 40.5 to 41.5 °C.

`COc1ccc(/C=C/C(=O)c2c(OC)cc(OC)cc2OC(=O)[C@H](C)NC(=O)OCc2ccccc2)cc1` yielded a melting point of 163 to 164 °C.

The compound `O=S(=O)(Nc1cccc(Cl)c1)c1cc(S(=O)(=O)Nc2cccc(Cl)c2)c2cc(O)ccc2c1` yielded a melting point of 206 to 208 °C.

As for `Cn1cc(Cl)c2cc(C=O)ccc21`, the melting point is 109 °C.

In the case of `CCOc1nc2c(cnn2CC)nc1C(=O)O`, the melting point is 128 to 130 °C.

As to `CN1CCN(S(=O)(=O)c2ccc(O)cc2)CC1`, the melting point fell in the range of 225 to 227 °C.

In turn, `C[C@](O)(CBr)C(=O)Nc1ccc(C#N)c(C(F)(F)F)c1` displayed a melting point of 124 to 126 °C.

`NC(=O)Nc1nc2n(n1)CCc1ccccc1-2` displayed a melting point of 210 to 212 °C.

On to `COC(=O)C1C(=O)Nc2ccc(C(F)(F)F)cc2CC1c1ccccc1Cl` (stereo not drawn), for which the melting point lay in the range of 183 to 184 °C.

`CSC1C2=C(CCCC2)C(=O)N1c1ccc(Cl)cc1F` (stereo not drawn) returned a melting point of 97 to 98 °C.

For the compound `CCCCc1nc2cnc3cccnc3c2n1CCNC(=O)OC(C)(C)C`, the melting point lay within 198 to 199 °C.

The compound `CC12Cc3cnn(-c4ccc(F)cc4)c3C=C1CCC1OC3(CC=C12)C(=O)NC(=O)NC3=O` (stereo not drawn) returned a melting point of 235 to 236 °C.

On to `Cc1ccc2c(c1)c(-c1ccc(F)cc1)cn2N1CCN(C)CC1`, for which the melting point lay within 105 to 107 °C.

Turning to `CCOC(=O)c1cc2n(n1)CCOC2`, the melting point came to 63 °C.

`CC1(C)Oc2ccc(C3=NNC(=O)CC3)cc2NC1=O` came in with a melting point of 251 to 254 °C.

`CCC(C)c1ccc(N(Cc2ccc(C(C)(C)C)cc2)C(=N)N(C)c2ccccc2)cc1` (stereo not drawn): the melting point was 80 to 82 °C.

Regarding `CN1CC=C(c2c[nH]c3ccc(NC(N)=S)cc23)CC1`, the melting point lay within 209 to 211 °C.

The compound `CC(C)Oc1ccc(F)c(N2C(=O)C3=C(CCCC3)C2=O)c1` registered a melting point of 62.8 °C.

The compound `CCOC(=O)c1c(-c2ccc(Cl)c(Cl)c2)csc1N1C(=O)c2ccccc2C1=O` showed a melting point of 155 to 156 °C.

`O=C(O)[C@@H]1CSCN1C(=O)OCc1ccccc1` showed a melting point of 58 to 63 °C.

Regarding `CC(C)(C)N1C(=O)c2ccc(C(=O)Cl)cc2S1(=O)=O`, the melting point fell in the range of 185 to 186 °C.

`CC(=O)SCCC(=O)N1CCC=C1C(=O)OC(C)(C)C`: the melting point was in the range of 59 to 62 °C.

With `NS(=O)(=O)c1cc2c(cc1Cl)C(=O)NC2=O`, the melting point is 121 to 125 °C.

The compound `Cc1nc2ncnn2c2c1CCN2c1c(Cl)cccc1Cl` showed a melting point of 192 to 194 °C.

Regarding `O=CN1CCN(c2c(F)c(F)c3c(=O)c(C(=O)O)cn(C4CC4)c3c2F)CC1`, the melting point lay in the range of 290 to 297 °C.

With `COc1ccc(Cn2c(=O)ccc3cnc(Nc4ccccc4)nc32)cc1`, the melting point fell in the range of 215 to 216 °C.

`O=C(O)CCC(=O)Oc1c(Cc2ccccc2)ccc2ccccc12`: the melting point was 140 °C.

In turn, `Clc1nccc(Oc2ccc3[nH]ccc3c2)n1` yielded a melting point of 169 to 176 °C.

`O=C1CCc2cccc3c2N1C(=O)C3`: the melting point fell in the range of 194 to 197 °C.

`CC(=O)Oc1ccc(-c2cnc(NC(=S)Cc3ccccc3)c(Cc3ccccc3)n2)cc1` yielded a melting point of 143 to 145 °C.

Compound `O=C(c1ccncc1)c1cc(-c2ccccc2)c(N2CCOCC2)s1` displayed a melting point of 149 °C.

In the case of `O=c1[nH]c2cc(Cl)ccc2c(=O)n1S(=O)(=O)c1ccc([N+](=O)[O-])cc1`, the melting point is > 250 °C.

In turn, `Cc1ccc(OCCOS(N)(=O)=O)cc1` registered a melting point of 108 to 110 °C.

In turn, `COc1ccc(S(=O)(=O)C(C)(Cc2ccc(OCCN3CCCCC3)cc2)C(=O)NO)cc1` (stereo not drawn) showed a melting point of 98 °C.

In the case of `CNC(=O)[C@@H](NC(=O)[C@@H](CC(=O)O)n1ccc(-c2ccc(-c3ccc(C#N)cc3)cc2)c1)C(C)(C)C`, the melting point was in the range of 142 to 144 °C.

Take `CNCc1ccc([C@H]2CC[C@H](OC(=O)Cc3ccc(Cl)cc3)CC2)cc1`: the melting point lay in the range of 65 to 67 °C.

In turn, `Cc1ccccc1Oc1cccc2c1OC(=O)C2(C)C` registered a melting point of 115 to 117 °C.

For `CCOC(=O)C(=O)Nc1ccc(C#N)cc1[N+](=O)[O-]`, the melting point worked out at 152 °C.

For the compound `C[C@@H]1[C@H](NC(=O)C(=O)c2csc(N)n2)C(=O)N1S(=O)(=O)O`, the melting point is > 300 °C.

Turning to `Nc1ccc(NC(=O)CCCCC2CCSS2)cc1` (stereo not drawn), the melting point lay in the range of 55 to 60 °C.

`CC(=O)N(c1cccc(Oc2ccccc2)c1)C(C)C(=O)O` (stereo not drawn): the melting point fell in the range of 145 to 146 °C.

`COCC#Cc1ccc(CNC(=O)[C@@H](COC)NC(C)=O)cc1` registered a melting point of 141 to 142 °C.

Compound `COc1cc(N)c2nccc(C)c2c1OCCCCCCCCCc1ccccc1` gave a melting point of 32 to 32.5 °C.

`COC(=O)c1cnc(OC)c(N)c1` returned a melting point of 108 to 109 °C.

In turn, `NC(=O)N1C(=O)Cc2cc(N)ccc21` registered a melting point of 189 to 191 °C.

As for `O=C(CCc1oc(-n2cnc3ccccc32)nc1-c1ccc(Cl)cc1)N1CCS(=O)(=O)C1`, the melting point is 136 to 137 °C.

Regarding `CCCC(=O)Nc1ccc2oc3c(c2c1)CCCC3`, the melting point was in the range of 133 to 135 °C.

As to `N#CNC(=O)C=NNc1ccc(F)cc1`, the melting point fell in the range of 265 to 267 °C.

Consider `NC(=O)c1nc(-c2cccc(O)c2)nc2c1[nH]c(=O)n2-c1cccc2[nH]ccc12`, for which the melting point was > 260 °C.

`CCCCN(C)C(=O)OCCCc1ccc(OCCOC)cc1Oc1ncc(C(F)(F)F)cc1Cl` yielded a melting point of 54 to 55.2 °C.

On to `Cc1ccc2c(c1)C(=O)c1ccc(-c3nnn[nH]3)cc1S2(=O)=O`, for which the melting point stood at 267 °C.

`O=c1[nH]c(-c2ccccn2)nnc1-c1ccc(Cl)cc1` came in with a melting point of 216 to 217 °C.

`NC(C=Cc1ccccc1)=NO` had a melting point of 85 to 87 °C.

On to `O=Cc1nccn1Cc1cn(-c2ccc(Cl)c(Cl)c2)cn1`, for which the melting point lay in the range of 130 to 131 °C.

In turn, `CC1(C)Cc2ccccc2C=[N+]1[O-]` gave a melting point of 70 to 72 °C.

With `Oc1ccc2c(ccc3ccccc32)c1`, the melting point lay in the range of 165 to 167 °C.

`CC1N=C(c2ccccc2)c2cc(Br)ccc2NC1=O` (stereo not drawn): the melting point lay in the range of 210 to 212 °C.

Take `Cc1ccccc1Cc1ccc(C(=O)O)o1`: the melting point was 136 to 138 °C.

The compound `CCCCS(=O)(=O)On1nnc2ccc(Cl)cc21` yielded a melting point of 72 to 74 °C.

`Cc1ccc(-c2ccc3c(c2)C=C(C(=O)Nc2ccc(CSCc4ccccc4)cc2)CCO3)cc1` had a melting point of 145 to 146 °C.

In turn, `CCCC1(CC(=O)O)OCCc2c1[nH]c1c(F)ccc(C(=O)N3CCOCC3)c21` (stereo not drawn) returned a melting point of 98 to 100 °C.

The compound `C=C(C)Cn1c(N)cc(=O)[nH]c1=O` had a melting point of 267 to 269 °C.

`COC(=O)c1ccccc1NC(=O)N1CCc2cc(S(=O)(=O)N3CCN(c4cccc(Cl)c4)CC3)ccc21` yielded a melting point of 230 °C.

In the case of `Cc1ccc(NCC2CCN(C(C)C)CC2)c(C(=O)Nc2ccc(F)cn2)c1`, the melting point was 58 to 60 °C.

As for `Cc1oc(=O)c(Nc2ccc([N+](=O)[O-])cc2)nc1Cl`, the melting point was in the range of 230 to 234 °C.

`O=C(O)C(S)c1ccc(Cl)cc1` (stereo not drawn) registered a melting point of 123 to 125 °C.

For the compound `OCCCc1cn(-c2ccc(C(F)(F)F)cn2)nc1OCc1ccccc1`, the melting point is 79 to 81 °C.

In turn, `O=C(O)c1ccccc1-c1nc(-c2ccc(Cl)c(Cl)c2)no1` returned a melting point of 202 to 204 °C.

In turn, `CCCC[C@H](CO)C(=O)NOCc1ccccc1` had a melting point of 100 to 102 °C.

As for `CCN1N=C(c2ccc(OC)c(OC)c2)[C@@H]2CCCC[C@@H]2C1=O` (relative stereo), the melting point lay in the range of 105 to 106 °C.

Compound `CN(c1cccc2cc(-c3nccs3)[nH]c12)S(=O)(=O)c1ccsc1CS(C)(=O)=O` registered a melting point of 253 °C.

Regarding `CNC(=O)c1cccc(F)c1Nc1nc(Nc2ccc3c(c2)N(CCOC)C(=O)CCC3)ncc1Br`, the melting point lay within 211 to 224 °C.

As for `CCOC(=O)CC(C#N)=CC(=CN(C)C)c1ccc(Cl)cc1`, the melting point lay within 168 to 170 °C.

Turning to `COC(=O)c1cnc2c(C)cc(C)cc2c1-c1ccccc1Cl`, the melting point lay in the range of 117 to 118 °C.

`CS(=O)(=O)c1ccc(-c2ccc(C3C(CCC(O)c4ccc(F)cc4)C(=O)N3c3ccc(F)cc3)cc2)cc1` (stereo not drawn) displayed a melting point of 111 °C.

The compound `COC(=O)c1ccc(-c2nc(NCc3ccc(OC)c(Cl)c3)c3c(n2)sc2ccccc23)cc1` gave a melting point of 203 to 204 °C.

Compound `COC(=O)C(C)(C)OCc1cc2nc(Cl)ccc2n1S(=O)(=O)c1ccc(C(C)C)cc1` returned a melting point of 120 °C.

For `Cc1c(CO)ncn1C`, the melting point lay within 161 to 163 °C.

As to `N#Cc1cc(C(=O)NNC(=O)c2occc2-c2cccc(OCCc3ccccc3)c2)ccc1O`, the melting point fell in the range of 131 to 134 °C.

The compound `Cn1cc(C(=O)NCc2ccc(Cl)cc2)c(=O)c2cc(CO)ccc21` displayed a melting point of 168 to 170 °C.

Take `Cc1cc(-c2ccc3c(=O)c(C(=O)O)cn(-c4ccc(F)cc4)c3c2)on1`: the melting point lay within 281 to 282 °C.

Take `O=C(Nc1ccccc1)OCCCCCCCCCCC=C(F)F`: the melting point lay within 54 to 56 °C.

Compound `NC(=NO)c1ccccc1C(F)(F)F` gave a melting point of 74 to 76 °C.

With `Cc1ccc2c(c1C)OC(=O)C2c1ccc(C(C)C)cc1` (stereo not drawn), the melting point fell in the range of 58 to 60 °C.

Consider `Cc1c(-c2cccn2C)c(N2CC[C@H](N(C)C)C2)c2oc(C3CC3)nc2c1C#N`, for which the melting point is 127 to 128 °C.

Compound `CC(C(=O)CO)c1ccc(-c2ccccc2)c(F)c1` (stereo not drawn) returned a melting point of 63 to 64.5 °C.

On to `N#CSCC(=O)N1CCCC1`, for which the melting point was 95 to 96 °C.

`Cc1ccc2c(c1)C1=NN(C(=O)c3cccnc3)CC1CO2` (stereo not drawn) came in with a melting point of 177 to 178 °C.

As for `CCOC(=O)C(=CC=C(SC)C(=O)c1ccc(N2CCCCC2)cc1)N(C)C`, the melting point worked out at 113 °C.

Compound `O=[N+]([O-])c1cccc(C2=NOCCS2)c1` displayed a melting point of 114 to 115 °C.
